In US20230293526A1, “METHOD FOR TREATING CANCER WITH A REVERSE TRANSCRIPTASE INHIBITOR” (PrimeFour Therapeutics, Inc., priority 2020, published 2023):
Values belong to the compound of their own block, whether it stands above or below them.

How the values were obtained:
Format in all cases: cell-based
PBMC = assay: Cell proliferation Ex.3
MDAMB231 = assay: Cell proliferation Ex.3; conditions: Homo sapiens, MDA-MB-231
Experimental: (§1) A dose response relationship on cell proliferation was assessed for Compound 13 on 140 tumor cell lines. […] Cells were cultured in the appropriate media. For the assays, cells were seeded in white cell culture-treated flat and clear bottom multiwell plates and incubated at 37° C. overnight before compound was added. […] on the medium, cell plates were equilibrated to room temperature for one hour, CellTiterGlo reagent (Promega) was added and luminescence was measured approximately an hour later using a luminometer. Raw data were converted into percent cell viability relative to the high and low control, which were set to 10000 and 000, respectively.

CALU6 = assay: Cell proliferation Ex.3; conditions: Homo sapiens, Calu-6
Experimental: as §1

TE671 = assay: Cell proliferation Ex.3; conditions: Homo sapiens, TE-671
Experimental: as §1

SU-DHL-6 = assay: Cell proliferation Ex.3; conditions: Homo sapiens
Experimental: as §1

U2OS = assay: Cell proliferation Ex.3; conditions: Homo sapiens
Experimental: as §1

GRANTA-519 = assay: Cell proliferation Ex.3; conditions: Homo sapiens
Experimental: as §1

BT20 = assay: Cell proliferation Ex.3; conditions: Homo sapiens, BT-20
Experimental: as §1

U87MG = assay: Cell proliferation Ex.3; conditions: Homo sapiens, U-87 MG
Experimental: as §1

SKBR3 = assay: Cell proliferation Ex.3; conditions: Homo sapiens, SK-BR-3
Experimental: as §1

K-562 = assay: Cell proliferation Ex.3; conditions: Homo sapiens, K562
Experimental: as §1

SF268 = assay: Cell proliferation Ex.3; conditions: Homo sapiens, SF-268
Experimental: as §1

RAMOS = assay: Cell proliferation Ex.3; conditions: Homo sapiens
Experimental: as §1

CASKI = assay: Cell proliferation Ex.3; conditions: Homo sapiens, Ca-Ski
Experimental: (§2) A dose response relationship on cell proliferation was assessed for Compound 13 on 140 tumor cell lines. […] Cells were cultured in the appropriate media. For the assays, cells were seeded in white cell culture-treated flat and clear bottom multiwell plates and incubated at 37° C. overnight before compound was added. […] dependent on the medium, cell plates were equilibrated to room temperature for one hour, CellTiterGlo reagent (Promega) was added and luminescence was measured approximately an hour later using a luminometer. Raw data were converted into percent cell viability relative to the high and low control, which were set to 10000 and 000, respectively.

MINO = assay: Cell proliferation Ex.3; conditions: Homo sapiens
Experimental: as §2

SKNSH = assay: Cell proliferation Ex.3; conditions: Homo sapiens, SK-N-SH
Experimental: as §2

KARPAS 299 = assay: Cell proliferation CellTiterGlo Ex.2; conditions: Homo sapiens; KARPAS 299 (Blood), 72 h
Outline: (§3)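 Cells were seeded, incubated overnight at 37 °C, then dosed at 10, 3, 1, 0.3, 0.1, 0.03, 0.01 and 0.003 μM for 72 h (5% or 10% CO2). CellTiterGlo luminescence gave percent viability relative to 0.10% DMSO (high) and 10 μM staurosporine (low) controls.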

RL95-2 = assay: Cell proliferation CellTiterGlo Ex.2; conditions: Homo sapiens; RL95-2 (Endometrium), 72 h
Outline: as §3

HeLa = assay: Cell proliferation CellTiterGlo Ex.2; conditions: Homo sapiens; HeLa (Cervix), 72 h
Outline: as §3

H1299 = assay: Cell proliferation CellTiterGlo Ex.2; conditions: Homo sapiens, NCI-H1299; H1299 (Lung), 72 h
Outline: as §3

SiHa = assay: Cell proliferation CellTiterGlo Ex.2; conditions: Homo sapiens; SiHa (Cervix), 72 h
Outline: as §3

Caki-1 = assay: Cell proliferation CellTiterGlo Ex.2; conditions: Homo sapiens; Caki-1 (Kidney), 72 h
Outline: as §3

IC50 (MDAMB231; MDAMB231, 72 h): > 10 µM
IC50 (MDAMB231; MDAMB231, 120 h): > 10 µM
IC50 (MDAMB231; MDAMB231, 168 h): > 10 µM
IC50 (CALU6; CALU6, 72 h): > 10 µM
IC50 (CALU6; CALU6, 120 h): > 10 µM
IC50 (CALU6; CALU6, 168 h): > 10 µM
IC50 (SU-DHL-6; SU-DHL-6, 72 h): > 10 µM
IC50 (SU-DHL-6; SU-DHL-6, 120 h): 4.99 µM
IC50 (SU-DHL-6; SU-DHL-6, 168 h): 1.3 µM
IC50 (U2OS; 72 h): > 10 µM
IC50 (U2OS; 120 h): > 10 µM
IC50 (U2OS; 168 h): > 10 µM
IC50 (BT20; BT20, 72 h): > 10 µM
IC50 (BT20; BT20, 120 h): > 10 µM
IC50 (BT20; BT20, 168 h): > 10 µM
IC50 (U87MG; 72 h): > 10 µM
IC50 (U87MG; 120 h): > 10 µM
IC50 (U87MG; 168 h): > 10 µM
IC50 (SKBR3; SKBR3, 72 h): 1.45 µM
IC50 (SKBR3; SKBR3, 120 h): 0.96 µM
IC50 (SKBR3; SKBR3, 168 h): 0.37 µM
IC50 (K-562; K-562, 72 h): > 10 µM
IC50 (K-562; K-562, 120 h): > 10 µM
IC50 (K-562; K-562, 168 h): > 10 µM
IC50 (RAMOS; 72 h): 4.04 µM
IC50 (RAMOS; 120 h): 0.004 µM
IC50 (RAMOS; 168 h): 1.18 µM
IC50 (SKNSH; 72 h): > 10 µM
IC50 (SKNSH; 120 h): > 10 µM
IC50 (SKNSH; 168 h): > 10 µM
SMILES: C#C[C@]1(CO)O[C@@H](n2cc(F)c(N)nc2=O)C[C@@H]1O [compound 9]
IC50 (PBMC; 72 h): > 10 µM
IC50 (PBMC; 120 h): > 10 µM
IC50 (PBMC; 168 h): > 10 µM
IC50 (TE671; TE671, 72 h): > 10 µM
IC50 (TE671; TE671, 120 h): > 10 µM
IC50 (TE671; TE671, 168 h): > 10 µM
IC50 (GRANTA-519; Granta-519, 72 h): 4.98 µM
IC50 (GRANTA-519; Granta-519, 120 h): 0.24 µM
IC50 (GRANTA-519; Granta-519, 168 h): 0.35 µM
IC50 (SF268; SF268, 72 h): > 10 µM
IC50 (SF268; SF268, 120 h): > 10 µM
IC50 (SF268; SF268, 168 h): > 10 µM
IC50 (CASKI; 72 h): > 10 µM
IC50 (CASKI; 120 h): > 10 µM
IC50 (CASKI; 168 h): > 10 µM
IC50 (MINO; 72 h): 0.34 µM
IC50 (MINO; 120 h): 0.049 µM
IC50 (MINO; 168 h): 0.065 µM

SMILES: C#C[C@]1(CO)O[C@@H](n2cnc3c(=O)[nH]c(N)nc32)C[C@@H]1O [compound 13]
IC50 (KARPAS 299): 4.07 µM
IC50 (RL95-2): 5.38 µM
IC50 (HeLa): 1.3 µM
IC50 (H1299): 7.68 µM
IC50 (SiHa): 2.45 µM
IC50 (Caki-1): 9.76 µM
